Experimental findings from article PMC8582824, “Targeting DDX3X Helicase Activity with BA103 Shows Promising Therapeutic Effects in Preclinical Glioblastoma Models” (Cancers, 2021) are described below.

The nature of series [1]: Human liver microsomal metabolic stability. In kind it is in vitro ADME. Particulars: 37 °C, 60 min. As to the method:
Preliminary in vitro ADME analysis was performed to early evaluate the pharmacokinetic (PK) profile of our compounds (Figure 8). Aqueous solubility was calculated by LC-MS-MS analysis. An aliquot of 1 mg of compound was stirred for 24 h at 27 °C in 1 mL of water. The mixture was filtered, and the quantity of solubilized compound was determined. Passive permeability was determined using parallel artificial membrane permeability assay (PAMPA). Microsomal metabolic stability was determined by LC-UV-MS analysis by incubating compounds with human liver microsomes at 37 °C for 60 min (for details, see the Supporting Information). […]
Microsomal Stability Assay.
Each compound in DMSO solution was incubated at 37 °C for 60 min in 125 mM phosphate buffer (pH 7.4), 5 μL of human liver microsomal protein (0.2 mg mL-1), in the presence of a NADPH-generating system at a final […]
reaction was stopped by cooling on ice and adding 1.0 mL of acetonitrile. The reaction mixtures were then centrifuged, and the parent drug and metabolites were subsequently determined by LC-UV-MS.
Chromatographic analysis was performed with an Agilent 1100 LC/MSD VL system (G1946C) (Agilent Technologies, Palo Alto, CA) constituted by a vacuum solvent degassing unit, a binary high-pressure gradient pump, an 1100 series UV detector, and an 1100 MSD model VL benchtop mass spectrometer.
Chromatographic separation was obtained using a Varian Polaris C18-A column (150-4.6 mm, 5 μm particle size) and gradient elution: eluent A being ACN and eluent B consisting of water. The analysis started with 2% […]
flow rate was 0.8 mL min-1 and injection volume was 20 μL.
The Agilent 1100 series mass spectra detection (MSD) single-quadrupole instrument was equipped with the orthogonal spray API-ES (Agilent Technologies, Palo Alto, CA). Nitrogen was used as nebulizing and drying gas. The pressure of the nebulizing gas, the flow of the drying gas, the capillary voltage, the fragmentor voltage, and the vaporization temperature were set at 40 psi, 9 L/min, 3000 V, 70 V, and 350 °C, respectively.
UV detection was monitored at 280 nm. The LC-ESI-MS determination was performed by operating the MSD in the positive ion mode. Spectra were acquired over the scan range m/z 100-1500 using a step size of 0.1 u.
The percentage of not metabolized compound was calculated by comparison with reference solutions
(Microsomes from liver hold many membrane-bound enzymes, among them those of drug oxidation.)

In the next series the test system is U251 cells. In words: MTS cytotoxicity assay, U251 cells. It counts as cell-based. The following applies: 72 h. As to the method:
For CellTiter 96® Aqueous One Solution Cell Proliferation Assay (MTS) (Promega, Madison, WI, USA), cells were seeded at 5 × 10^3 per well in 96-well plates in quadruplicate together a control with no cells to evaluate the background. After 24 h, the culture medium was removed, and fresh medium containing increasing concentrations of chemical compounds was added to cells. […] DMSO was the vehicle used for dilution of the compounds, and its final concentration on cells was less than 0.2%. Medium-only containing wells were included as controls. Cells were incubated with compounds at different concentrations for 72 h, then, 20 µL of CellTiter 96® AQueous One Solution Reagent was added into each well. After 3 h at 37 °C in a humidified, 5% CO2 atmosphere, the absorbance at 492 nm was recorded using an EZREAD400 (Biochrom, Cambridge, United Kingdom) plate reader. The average 490 nm absorbance from the “no cell” control wells was subtracted from all other values to yield background-corrected absorbance. Dose–response curves and CC50 values have been calculated by plotting the absorbance data as a function of inhibitor concentrations and fitting the data by least-squares nonlinear regression, according to the method of Marquardt–Levenberg, with the computer program GraphPad Prism 6.0.
Cells were incubated with a scalar concentration of DDX3X inhibitors, and after 72 h of treatment, cell viability was assessed by cytotoxicity assay. […] Compounds 4, 6, and BA103 were also evaluated against BJ primary fibroblasts; compound 4 has a cytotoxicity value of 84.7 μM; on the contrary, compounds 6 and BA103 were not toxic up to 200 μM concentration. This further excluded a possible nonspecific cytotoxic effect. […] Due to its interesting profile, compound BA103 was further tested against additional pulmonary (A549), breast (MDA-MB-231), colorectal (HCT-116), osteosarcoma (U2OS), rhabdomyosarcoma (RD18), GBM (DBTRG, U87, and U251) and medulloblastoma (DAOY) cancer cell lines.
Figure 5 Cytotoxicity of selected compounds. Compounds were assayed on DU-145, PC3, HepG2, Huh-7, HN6, U251, and U87 cell lines. The concentration of the compound, which reduced the number of viable cells by 50% (CC50), was determined by dose–response curve, and the mean CC50 value for each cell line was calculated by triplicate assays (raw data from U87 and U251 cells with dose–response curves used for the calculation of CC50 in Table S1 and Figure S2).
Table S1: Raw data of optical absorbance at 490 nm from MTS assay in U87 and U251 cells. Tables contain
means with SD of at least 5 different values that were used for preparation of figure 5.

Take `CCCCc1cn(-c2ccc(NC(=O)Nc3ccccc3C(F)(F)F)cc2)nn1` [BA103, 1-(4-(4-Butyl-1H-1,2,3-triazol-1-yl)phenyl)-3-(2-(trifluoromethyl)phenyl)urea]: the “HLM Stability ± SD (Human Liver Microsomal Metabolic Stability)” value (“HLM Stability ± SD” for short) in series [1] came out at 97.0 ± 0.5%. Moreover, the “mean absorbance at 490 nm (MTS)” value is recorded as 2,166 in the series on U251 cells (U251, 0,01 uM); 2,070 in the series with U251 cells (U251, 0,1 uM); 1,364 in the series on U251 cells (U251, 1 uM); 0,842 in the series with U251 cells (U251, 10 uM); 0,604 with U251 cells (U251, 100 uM).
Regarding `CCCCc1cn(-c2ccc(NC(=O)Nc3ccccc3C)cc2)nn1` [Compound 1, reference compound], the “HLM Stability ± SD” value in series [1] worked out at 99.0 ± 0.6%. Moreover, the “mean absorbance at 490 nm (MTS)” value is 2,020 with U251 cells (U251, 0,01 uM); 1,998 with U251 cells (U251, 0,1 uM); 1,459 in the series with U251 cells (U251, 1 uM); 1,107 in the series with U251 cells (U251, 10 uM); 0,474 in the series on U251 cells (U251, 100 uM).
For the molecule `CCCCc1nnc(-c2ccc(NC(=O)Nc3ccccc3C(F)(F)F)cc2)o1` [Compound 3, 1-(4-(5-Butyl-1,3,4-oxadiazol-2-yl)phenyl)-3-(2-(trifluoromethyl)phenyl)urea], the “HLM Stability ± SD” value in series [1] was determined as 88.9 ± 0.9%. In addition, the “mean absorbance at 490 nm (MTS)” value with U251 cells (U251, 0,01 uM) is given as 1,298; in the series on U251 cells (U251, 0,1 uM) it was 1,025; in the series on U251 cells (U251, 1 uM) it was 1,098; with U251 cells (U251, 10 uM), 0,593; in the series on U251 cells (U251, 100 uM), 0,217.
With `CCCCc1nnc(-c2ccc(NC(=O)Nc3ccccc3C(F)(F)F)cc2)[nH]1` [Compound 4, 1-(4-(5-Butyl-4H-1,2,4-triazol-3-yl)phenyl)-3-(2-(trifluoromethyl)phenyl)urea], the “HLM Stability ± SD” value in series [1] is reported as 97.9 ± 0.3%. Moreover, the “mean absorbance at 490 nm (MTS)” value in the series on U251 cells (U251, 0,01 uM) is 1,499; in the series on U251 cells (U251, 0,1 uM), 1,513; in the series on U251 cells (U251, 1 uM) it was 1,627; in the series on U251 cells (U251, 10 uM) it was 1,482; in the series with U251 cells (U251, 100 uM) it was 0,502.
On to `CCCCn1nnc(-c2ccc(NC(=O)Nc3ccccc3C(F)(F)F)cc2)n1` [Compound 6, 1-(4-(2-Butyl-2H-tetrazol-5-yl)phenyl)-3-(2-(trifluoromethyl)phenyl)urea], for which, in series [1], the “HLM Stability ± SD” value was found to be 90.32 ± 0.7%. The “mean absorbance at 490 nm (MTS)” value was 1,431 in the series with U251 cells (U251, 0,01 uM); 1,763 in the series on U251 cells (U251, 0,1 uM); 2,172 in the series on U251 cells (U251, 1 uM); 1,348 in the series with U251 cells (U251, 10 uM); 0,361 in the series with U251 cells (U251, 100 uM).
For `CC(C)CCc1cn(-c2ccc(NC(=O)Nc3cccc4cnccc34)cn2)nn1` [Compound 10, 1-(6-(4-Isopentyl-1H-1,2,3-triazol-1-yl)pyridin-3-yl)-3-(isoquinolin-5-yl)urea], the “HLM Stability ± SD” value in series [1] came out at 91.31 ± 0.1%. Besides, the “mean absorbance at 490 nm (MTS)” value is given as 1,904 in the series on U251 cells (U251, 0,01 uM); 2,003 with U251 cells (U251, 0,1 uM); 1,581 with U251 cells (U251, 1 uM); 1,667 in the series with U251 cells (U251, 10 uM); 0,809 in the series with U251 cells (U251, 100 uM).
